Measured values published in patent US20260022142A1, “MACROCYCLIC IMMUNOMODULATORS” (Bristol-Myers Squibb Company, priority 2022, published 2026).
Bridge positions count the residues as written; N and C are the ends. Square brackets hold non-standard residues; d marks the D form. Peptide text beside a SMILES is read from it. * marks the point of attachment. ξ: configuration not given here. Phe(4-COOH) = N[C@@H](Cc1ccc(C(=O)O)cc1)C(=O)O; Bip = N[C@@H](Cc1ccc(-c2ccccc2)cc1)C(=O)O; NH(CH2)14COOH = O=C(O)CCCCCCCCCCCCCCN*; Phe(3-Me) = Cc1cccc(C[C@H](N)C(=O)O)c1; NH(CH2)12COOH = O=C(O)CCCCCCCCCCCCN*; Cyclopropanecarbonyl = O=C(C1CC1)*; Val(3-OH) = CC(C)(O)[C@H](N)C(=O)O; hArg = N=C(N)NCCCC[C@H](N)C(=O)O; 4Pal = N[C@@H](Cc1ccncc1)C(=O)O; 2Thi = N[C@@H](Cc1cccs1)C(=O)O; Cha = N[C@@H](CC1CCCCC1)C(=O)O; Thr(3ξ) = CC(O)[C@H](N)C(=O)O; hSer = N[C@@H](CCO)C(=O)O; Carboxymethyl = O=C(O)C*; Orn = NCCC[C@H](N)C(=O)O; Aun = NCCCCCCCCCCC(=O)O; Dab = NCC[C@H](N)C(=O)O; Nva = CCC[C@H](N)C(=O)O; Dap = NC[C@H](N)C(=O)O; AEEA = NCCOCCOCC(=O)O

What follows are molecules tested against T1, PD-1/PD-L1 interaction (PE-labeled human PD-L1-Ig binding to Jurkat cell line over-expressing human PD-1) (Homo sapiens, UniProt Q15116) (assay: Jurkat-PD-1 Cell Binding High-Content Screening Assay (CBA)). Conditions: Jurkat cell line over-expressing human PD-1; PE-labeled PD-L1-Ig 20 nM final; read-out: Jurkat hPD1-PDL1 IC50.
T1 construct: expressed in transfected cells; host or cells: Jurkat
T1 sequence (Q15116 25-288): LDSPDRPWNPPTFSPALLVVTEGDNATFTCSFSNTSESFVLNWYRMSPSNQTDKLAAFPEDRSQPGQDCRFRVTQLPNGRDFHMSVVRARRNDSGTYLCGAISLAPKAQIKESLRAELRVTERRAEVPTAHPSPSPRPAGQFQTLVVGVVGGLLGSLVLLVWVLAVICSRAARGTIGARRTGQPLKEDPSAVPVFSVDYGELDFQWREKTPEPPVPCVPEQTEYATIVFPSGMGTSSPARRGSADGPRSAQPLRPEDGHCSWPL
Format: cell-based
Outline: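 Human PD-L1-Ig carrying a covalent PE label on its Ig tag serves as the probe, applied at 20 nM final to compound-treated (2 h, 37° C) Jurkat-hPD-1 cells in medium with 10% fetal calf serum. After one hour, fixation and nuclear staining precede high-content image analysis.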

Structure (SMILES)	IC50
Cc1cccc(C[C@@H]2NC(=O)[C@H](CC(=O)O)NC(=O)[C@H](Cc3ccc(OCC(=O)O)cc3)NC(=O)[C@H](Cc3cccs3)NC(=O)CSC[C@@H](C(=O)N[C@@H](CCN)C(=O)NCCCCCCCCCCC(=O)O)NC(=O)[C@H](CO)NC(=O)[C@H](C(C)(C)O)NC(=O)[C@H](CC3CCCCC3)NC(=O)[C@H](CCN)NC(=O)[C@@H](CC(C)C)NC(=O)[C@H](CCCN)NC(=O)[C@H](Cc3ccc(OCC(=O)O)cc3)NC(=O)[C@H](Cc3ccc(-c4ccccc4)cc3)NC(=O)[C@H](Cc3ccc(OCC(=O)O)cc3)NC2=O)c1 [Compound 2182] ({CH2CO}-[2Thi]Y(Carboxymethyl)D[Phe(3-Me)]Y(Carboxymethyl)[Bip]Y(Carboxymethyl)[Orn][dL][Dab][Cha][Val(3-OH)]SC[Dab][Aun]-OH; thioether N-14)	15.6 nM
COC[C@@H]1NC(=O)CSC[C@@H](C(=O)N[C@@H](CCN)C(=O)NCCOCCOCC(=O)NCCCCCCCCCCC(=O)O)NC(=O)[C@H](CO)NC(=O)[C@H](C(C)(C)O)NC(=O)[C@H](CC2CCCCC2)NC(=O)[C@H](CCN)NC(=O)[C@@H](CC(C)C)NC(=O)[C@H](CCCN)NC(=O)[C@H](Cc2ccc(OCC(=O)O)cc2)NC(=O)[C@H](Cc2ccc(-c3ccccc3)cc2)NC(=O)[C@H](Cc2ccc(OCC(=O)O)cc2)NC(=O)[C@H](Cc2cccc(C)c2)NC(=O)[C@H](CC(=O)O)NC(=O)[C@H](Cc2ccc(C(=O)O)cc2)NC1=O [Compound 2241] ({CH2CO}-S(Me)[Phe(4-COOH)]D[Phe(3-Me)]Y(Carboxymethyl)[Bip]Y(Carboxymethyl)[Orn][dL][Dab][Cha][Val(3-OH)]SC[Dab][AEEA][Aun]-OH; thioether N-14)	3.7 nM
CCC[C@@H]1NC(=O)CSC[C@@H](C(=O)N[C@@H](CCN)C(=O)NCCOCCOCC(=O)NCCOCCOCC(=O)NCCCCCCCCCCCCCCC(=O)O)NC(=O)[C@H](CO)NC(=O)[C@H](C(C)(C)O)NC(=O)[C@H](CC2CCCCC2)NC(=O)[C@H](CCN)NC(=O)[C@@H](CC(C)C)NC(=O)[C@H](CCCN)NC(=O)[C@H](Cc2ccc(OCC(=O)O)cc2)NC(=O)[C@H](Cc2ccc(-c3ccccc3)cc2)NC(=O)[C@H](Cc2ccc(OCC(=O)O)cc2)NC(=O)[C@H](Cc2cccc(C)c2)NC(=O)[C@H](CC(=O)O)NC(=O)[C@H](Cc2ccc(OCC(=O)O)cc2)NC1=O [Compound 2866] ({CH2CO}-[Nva]Y(Carboxymethyl)D[Phe(3-Me)]Y(Carboxymethyl)[Bip]Y(Carboxymethyl)[Orn][dL][Dab][Cha][Val(3-OH)]SC[Dab][AEEA][AEEA]-{NH(CH2)14COOH}; thioether N-14)	101 nM
COC[C@@H]1NC(=O)CSC[C@@H](C(=O)N[C@@H](CCN)C(=O)NCCOCCOCC(=O)NCCCCCCCCCCC(=O)O)NC(=O)[C@H](CO)NC(=O)[C@H](C(C)(C)O)NC(=O)[C@H](CC2CCCCC2)NC(=O)[C@H](CCN)NC(=O)[C@@H](CC(C)C)NC(=O)[C@H](CCCN)NC(=O)[C@H](Cc2ccc(OCC(=O)O)cc2)NC(=O)[C@H](Cc2ccc(-c3ccccc3)cc2)NC(=O)[C@H](Cc2ccc(OCC(=O)O)cc2)NC(=O)[C@H](Cc2cccc(C)c2)NC(=O)[C@H](CC(=O)O)NC(=O)[C@H](Cc2ccc(OCC(=O)O)cc2)NC1=O [Compound 2239] ({CH2CO}-S(Me)Y(Carboxymethyl)D[Phe(3-Me)]Y(Carboxymethyl)[Bip]Y(Carboxymethyl)[Orn][dL][Dab][Cha][Val(3-OH)]SC[Dab][AEEA][Aun]-OH; thioether N-14)	1.6 nM
Cc1cccc(C[C@@H]2NC(=O)[C@H](CC(=O)O)NC(=O)[C@H](Cc3ccc(OCC(=O)O)cc3)NC(=O)[C@H](CCN)NC(=O)CSC[C@@H](C(=O)N[C@@H](CCN)C(=O)NCCOCCOCC(=O)NCCOCCOCC(=O)NCCCCCCCCCCCCC(=O)O)NC(=O)[C@H](CO)NC(=O)[C@H](C(C)(C)O)NC(=O)[C@H](CC3CCCCC3)NC(=O)[C@H](Cc3c[nH]cn3)NC(=O)[C@@H](CC(C)C)NC(=O)[C@H](CCCN)NC(=O)[C@H](Cc3ccc(C(=O)O)cc3)NC(=O)[C@H](Cc3ccc(-c4ccccc4)cc3)NC(=O)[C@H](Cc3ccc(C(=O)O)cc3)NC2=O)c1 [Compound 2887] ({CH2CO}-[Dab]Y(Carboxymethyl)D[Phe(3-Me)][Phe(4-COOH)][Bip][Phe(4-COOH)][Orn][dL]H[Cha][Val(3-OH)]SC[Dab][AEEA][AEEA]-{NH(CH2)12COOH}; thioether N-14)	18.4 nM

Now from value to molecule:

IC50	Structure (SMILES)
34.6 nM	CC(C)C[C@H]1NC(=O)[C@H](CCCN)NC(=O)[C@H](C(C)C)NC(=O)[C@H](Cc2ccc(-c3ccccc3)cc2)NC(=O)[C@H](C(C)C)NC(=O)[C@H](Cc2c[nH]c3ccccc23)NC(=O)[C@H](CC(=O)O)NC(=O)[C@H](Cc2ccc(OCC(=O)O)cc2)NC(=O)[C@H](CN)NC(=O)CSC[C@@H](C(=O)N[C@@H](CCN)C(=O)NCCCCCCCCCCC(=O)O)NC(=O)[C@H]([C@@H](C)O)NC(=O)[C@H](C(C)C)NC(=O)[C@H](CC2CCCCC2)NC(=O)[C@H](Cc2c[nH]cn2)NC1=O [Compound 1075] ({CH2CO}-[Dap]Y(Carboxymethyl)DWV[Bip]V[Orn][dL]H[Cha]VTC[Dab][Aun]-OH; thioether N-14)
17.4 nM	CC(C)C[C@H]1NC(=O)[C@H](CCCN)NC(=O)[C@H](C(C)C)NC(=O)[C@H](Cc2ccc(-c3ccccc3)cc2)NC(=O)[C@H](C(C)C)NC(=O)[C@H](Cc2c[nH]c3ccccc23)NC(=O)[C@H](CC(=O)O)NC(=O)[C@H](Cc2ccc(OCC(=O)O)cc2)NC(=O)[C@H](Cc2ccncc2)NC(=O)CSC[C@@H](C(=O)NCC(=O)NCCOCCOCC(=O)N[C@@H](CCCN)C(=O)NCCCCCCCCCCC(=O)O)NC(=O)[C@H](CCCN)NC(=O)[C@H](C(C)C)NC(=O)[C@H](CC2CCCCC2)NC(=O)[C@H](CC(N)=O)NC1=O [Compound 3207] ({CH2CO}-[4Pal]Y(Carboxymethyl)DWV[Bip]V[Orn][dL]N[Cha]V[Orn]CG[AEEA][Orn][Aun]-OH; thioether N-14)
16 nM	Cc1cccc(C[C@@H]2NC(=O)[C@H](CC(=O)O)NC(=O)[C@H](Cc3ccc(OCC(=O)O)cc3)NC(=O)[C@H]([C@@H](C)O)NC(=O)CSC[C@@H](C(=O)N[C@@H](CCN)C(=O)NCCOCCOCC(=O)NCCCCCCCCCCCCC(=O)O)NC(=O)[C@H](CO)NC(=O)[C@H](C(C)(C)O)NC(=O)[C@H](CC3CCCCC3)NC(=O)[C@H](CCN)NC(=O)[C@@H](CC(C)C)NC(=O)[C@H](CCCN)NC(=O)[C@H](Cc3ccc(OCC(=O)O)cc3)NC(=O)[C@H](Cc3ccc(-c4ccccc4)cc3)NC(=O)[C@H](Cc3ccc(OCC(=O)O)cc3)NC2=O)c1 [Compound 2249] ({CH2CO}-TY(Carboxymethyl)D[Phe(3-Me)]Y(Carboxymethyl)[Bip]Y(Carboxymethyl)[Orn][dL][Dab][Cha][Val(3-OH)]SC[Dab][AEEA]-{NH(CH2)12COOH}; thioether N-14)
11.2 nM	Cc1cccc(C[C@@H]2NC(=O)[C@H](CC(=O)O)NC(=O)[C@H](Cc3ccc(OCC(=O)O)cc3)NC(=O)[C@H](CN)NC(=O)CSC[C@@H](C(=O)N[C@@H](CCN)C(=O)NCCOCCOCC(=O)NCCCCCCCCCCC(=O)O)NC(=O)[C@H](CCCN)NC(=O)[C@H](C(C)C)NC(=O)[C@H](CC3CCCCC3)NC(=O)[C@H](CCN)NC(=O)[C@@H](CC(C)C)NC(=O)[C@H](CCCN)NC(=O)[C@H](C(C)C)NC(=O)[C@H](Cc3ccc(-c4ccccc4)cc3)NC(=O)[C@H](C(C)C)NC2=O)c1 [Compound 2551] ({CH2CO}-[Dap]Y(Carboxymethyl)D[Phe(3-Me)]V[Bip]V[Orn][dL][Dab][Cha]V[Orn]C[Dab][AEEA][Aun]-OH; thioether N-14)
13.9 nM	Cc1cccc(C[C@@H]2NC(=O)[C@H](CC(=O)O)NC(=O)[C@H](Cc3ccc(OCC(=O)O)cc3)NC(=O)[C@H](CN)NC(=O)CSC[C@@H](C(=O)N[C@@H](CCN)C(=O)NCCCCCCCCCCC(=O)O)NC(=O)[C@H](CCO)NC(=O)[C@H](C(C)C)NC(=O)[C@H](CC3CCCCC3)NC(=O)[C@H](CCN)NC(=O)[C@@H](CC(C)C)NC(=O)[C@H](CCCN)NC(=O)[C@H](Cc3ccc(OCC(=O)O)cc3)NC(=O)[C@H](Cc3ccc(-c4ccccc4)cc3)NC(=O)[C@H](Cc3ccc(O)cc3)NC2=O)c1 [Compound 2100] ({CH2CO}-[Dap]Y(Carboxymethyl)D[Phe(3-Me)]Y[Bip]Y(Carboxymethyl)[Orn][dL][Dab][Cha]V[hSer]C[Dab][Aun]-OH; thioether N-14)
16.2 nM	Cc1cccc(C[C@@H]2NC(=O)[C@H](CC(=O)O)NC(=O)[C@H](Cc3ccc(OCC(=O)O)cc3)NC(=O)[C@H](CCCCNC(=N)N)NC(=O)CSC[C@@H](C(=O)N[C@@H](CCN)C(=O)NCCCCCCCCCCC(=O)O)NC(=O)[C@H](C(C)O)NC(=O)[C@H](C(C)C)NC(=O)[C@H](CC3CCCCC3)NC(=O)[C@H](CCN)NC(=O)[C@@H](CC(C)C)NC(=O)[C@H](CCCN)NC(=O)[C@H](CCCNC(=O)C3CC3)NC(=O)[C@H](Cc3ccc(-c4ccccc4)cc3)NC(=O)[C@H](Cc3ccc(O)cc3)NC2=O)c1 (stereo partly drawn) [Compound 3581] ({CH2CO}-[hArg]Y(Carboxymethyl)D[Phe(3-Me)]Y[Bip][Orn](Cyclopropanecarbonyl)[Orn][dL][Dab][Cha]V[Thr(3ξ)]C[Dab][Aun]-OH; thioether N-14)
15.7 nM	CC(C)C[C@H]1NC(=O)[C@H](CCCN)NC(=O)[C@H](C(C)C)NC(=O)[C@H](Cc2ccc(-c3ccccc3)cc2)NC(=O)[C@H](C(C)C)NC(=O)[C@H](Cc2c[nH]c3ccccc23)NC(=O)[C@H](CC(=O)O)NC(=O)[C@H](Cc2ccc(OCC(=O)O)cc2)NC(=O)[C@H](CN)NC(=O)CSC[C@@H](C(=O)NCCOCCOCC(=O)N[C@@H](CN)C(=O)NCCCCCCCCCCC(=O)O)NC(=O)[C@H]([C@@H](C)O)NC(=O)[C@H](C(C)C)NC(=O)[C@H](CC2CCCCC2)NC(=O)[C@H](Cc2cnc[nH]2)NC1=O [Compound 1095] ({CH2CO}-[Dap]Y(Carboxymethyl)DWV[Bip]V[Orn][dL]H[Cha]VTC[AEEA][Dap][Aun]-OH; thioether N-14)
